Laboratory results taken from patent publication US9428519B2, “Acylated derivative of homoharringtonine, preparation method therefor, and application thereof” (HANGZHOU BENSHENG PHARMACEUTICAL CO., LTD., priority 2011, dated 2016).
Converted amounts (≈) assume the structure as drawn.

Key:
A549 (human lung cancer) = assay: MTT growth inhibition of human solid tumor cells, 72 h; type: cell-based; conditions: Homo sapiens, A549
Method in brief: (§1)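 MTT determination of viable cells gives percent viability, normalised to untreated wells taken as 100%. Cells (4000 per well) grew 24 h in serum-supplemented DMEM high glucose, then faced graded compound concentrations for 72 h at 37° C under 5% CO2.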

[1] = test system: Becap37 (human breast cancer cell); assay: as above; type: cell-based; conditions: Homo sapiens
Method in brief: as §1

[2] = test system: CNE (nasopharyngeal carcinoma cell); assay: as above; type: cell-based; conditions: Homo sapiens, MTT
Method in brief: as §1

[3] = test system: CaES-17 (esophageal cancer cell); assay: as above; type: cell-based; conditions: Homo sapiens, CaEs17
Method in brief: as §1

[4] = test system: Hela (human cervical cancer cell); assay: as above; type: cell-based
Method in brief: as §1

[5] = test system: Hep-2 (laryngeal carcinoma); assay: as above; type: cell-based; conditions: Homo sapiens, HEp-2
Method in brief: as §1

[6] = test system: Huh7 (human liver cancer cell); assay: as above; type: cell-based; conditions: Homo sapiens, Huh-7
Method in brief: as §1

MG63 (osteosarcoma) = assay: as above; type: cell-based
Method in brief: as §1

[7] = test system: MGC 803 (human gastric cancer cell); assay: as above; type: cell-based; conditions: Homo sapiens, MGC-803
Method in brief: as §1

[8] = test system: PANC-1 (pancreatic cancer); assay: as above; type: cell-based
Method in brief: as §1

PC-3 (prostate cancer) = assay: as above; type: cell-based
Method in brief: as §1

[9] = test system: RKO (human colon adenocarcinoma cell); assay: as above; type: cell-based
Method in brief: as §1

[10] = test system: SK-OV-3 (ovarian cancer cell); assay: as above; type: cell-based
Method in brief: as §1

[11] = test system: U87 MG (malignant glioma cell); assay: as above; type: cell-based; conditions: Homo sapiens, U-87 MG
Method in brief: as §1

[12] = Body weight and toxicity in tumor-bearing BALB/c-nu nude mice; type: in vivo; conditions: for Weight (g) Final / Weight (g) Initial: 10 days
Procedure: Animal: BALB/c-nu nude mice, 8 weeks, female, purchased from Shanghai Laboratory Animal Center of Chinese Academy of Sciences, China.
BS-HH-002, wherein BS-HH-002-0.1 indicates a dosage of 0.1 mg/kg each time, BS-HH-002-0.3 indicates a dosage of 0.3 mg/kg each time, BS-HH-002-0.5 indicates a dosage of 0.5 mg/kg each time, and BS-HH-002-1.0 indicates a dosage of 1.0 mg/kg each time.
Under sterile conditions, the above tumor cells in logarithmic growth phase are collected and injected in an amount of 2×10^7/0.2 ml/nude mice (cell viability>95%) into the right subaxillary of the nude mice by subcutaneous injection, thus establishing a BALB/c-nu nude mice model bearing transplanted tumor of gastric cancer. The mice are administered on the third day after the inoculation, wherein the experimental groups are intragastrically administered in an experimentally designed amount, and the negative control group is intragastrically administered with sterile water. Administration takes place at 8:00 for one time a day, at 8:00 and 14:00 for twice a day, and at 8:00, 14:00 and 20:00 with 6-hour intervals for three times day. The administrations are successive for 10 days. The day before administration is Day 0 and the weight and tumor size are determined approximately every 5 days to produce a plot on weight and tumor growth. On Day 27, the mice are dissected and the tumors are taken out and weighed. Based on a tumor inhibition rate of zero for the control group, the tumor inhibition rate (%) after the effect of the medicament is calculated.
The values determined are presented as mean±standard error (M±SD). The experimental data for each group are analyzed by the One-way ANOVA method of SPSS 18.0 Statistical Software, and p<0.05 is deemed as having statistically significant difference.

[13] = 0.1 mg/kg/time, 1 time/day intragastric
[14] = 0.1 mg/kg/time, 2 times/day intragastric
[15] = 0.1 mg/kg/time, 3 times/day intragastric
[16] = 0.3 mg/kg/time, 1 time/day intragastric
[17] = 0.5 mg/kg/time, 1 time/day intragastric
[18] = 0.5 mg/kg/time, 2 times/day intragastric
[19] = 0.5 mg/kg/time, 3 times/day intragastric
[20] = 1.0 mg/kg/time, 1 time/day intragastric
[21] = 1.0 mg/kg/time, 3 times/day intragastric

COC(=O)C[C@](O)(CCCC(C)(C)OC(C)=O)C(=O)O[C@@H]1C(OC)=C[C@]23CCCN2CCc2cc4c(cc2[C@H]13)OCO4 [BS-HH-002, 6-acetylhomoharringtonine]
IC50 (A549 (human lung cancer)): 0.013 µg/mL (≈ 0.0221 µM)
IC90 (A549 (human lung cancer)): > 16 µg/mL
IC50 [1]: 0.005 µg/mL (≈ 0.00851 µM)
IC90 [1]: 16 µg/mL (≈ 27.2 µM)
IC50 [2]: 0.024 µg/mL (≈ 0.0408 µM)
IC90 [2]: > 16 µg/mL
IC50 [3]: 0.02 µg/mL (≈ 0.034 µM)
IC90 [3]: > 16 µg/mL
IC50 ([4]; Homo sapiens, HeLa, MTT): 0.0077 µg/mL (≈ 0.0131 µM)
IC90 ([4]; Homo sapiens, HeLa, MTT): 16 µg/mL (≈ 27.2 µM)
anti-Hela effect relative to homoharringtonine ([4]; vs HHT): more than 2.5 fold
IC50 [5]: 0.0037 µg/mL (≈ 0.0063 µM)
IC90 [5]: > 16 µg/mL
IC50 [6]: 0.0021 µg/mL (≈ 0.00357 µM)
IC90 [6]: 0.018 µg/mL (≈ 0.0306 µM)
IC50 (MG63 (osteosarcoma); Homo sapiens, MG-63, MTT): 0.006 µg/mL (≈ 0.0102 µM)
IC90 (MG63 (osteosarcoma); Homo sapiens, MG-63, MTT): 0.42 µg/mL (≈ 0.715 µM)
anti-MG63 effect relative to homoharringtonine (MG63 (osteosarcoma); vs HHT): substantially superior
IC50 [7]: 0.008 µg/mL (≈ 0.0136 µM)
IC90 [7]: 0.056 µg/mL (≈ 0.0953 µM)
IC50 ([8]; Homo sapiens, PANC-1, MTT): 0.012 µg/mL (≈ 0.0204 µM)
IC90 ([8]; Homo sapiens, PANC-1, MTT): > 16 µg/mL
anti-PANC-1 effect relative to homoharringtonine ([8]; vs HHT): more than 3 fold
IC50 (PC-3 (prostate cancer); Homo sapiens, MTT): 0.013 µg/mL (≈ 0.0221 µM)
IC90 (PC-3 (prostate cancer); Homo sapiens, MTT): > 16 µg/mL
anti-PC-3 effect relative to homoharringtonine (PC-3 (prostate cancer); vs HHT): more than 6 fold
IC50 ([9]; Homo sapiens, MTT): 0.002 µg/mL (≈ 0.0034 µM)
IC90 ([9]; Homo sapiens, MTT): 0.01 µg/mL (≈ 0.017 µM)
anti-RKO effect relative to homoharringtonine ([9]; vs HHT): substantially superior
IC50 ([10]; Homo sapiens, SK-OV-3, MTT): 0.05 µg/mL (≈ 0.0851 µM)
IC90 ([10]; Homo sapiens, SK-OV-3, MTT): > 16 µg/mL
anti-SK-OV-3 effect relative to homoharringtonine ([10]; vs HHT): 2 fold
IC50 [11]: 0.002 µg/mL (≈ 0.0034 µM)
IC90 [11]: 0.012 µg/mL (≈ 0.0204 µM)
Weight (g) Final [12, 13]: 27.18 ± 3.62 g
Weight (g) Initial [12, 13]: 18.88 ± 0.56 g
Weight (g) Final [12, 14]: 25.63 ± 1.06 g
Weight (g) Initial [12, 14]: 21.35 ± 0.34 g
Weight (g) Final [12, 15]: 28.50 ± 2.83 g
Weight (g) Initial [12, 15]: 24.58 ± 0.39 g
Weight (g) Final [12, 16]: 24.30 ± 1.38 g
Weight (g) Initial [12, 16]: 18.98 ± 0.51 g
Weight (g) Final [12, 17]: 25.78 ± 1.15 g
Weight (g) Initial [12, 17]: 20.10 ± 0.22 g
Weight (g) Final [12, 18]: 26.68 ± 1.42 g
Weight (g) Initial [12, 18]: 22.28 ± 0.43 g
Weight (g) Final [12, 19]: 26.33 ± 2.76 g
Weight (g) Initial [12, 19]: 23.50 ± 0.37 g
Weight (g) Final [12, 20]: 25.95 ± 0.94 g
Weight (g) Initial [12, 20]: 20.45 ± 0.76 g
Weight (g) Final [12, 21]: 29.98 ± 1.32 g
Weight (g) Initial [12, 21]: 26.98 ± 0.75 g
toxic and side effect ([12]; all dosages 0.1-1.0 mg/kg): none of the dosages causes obvious toxic and side effect
animal deaths until dissection ([12]; all groups, until Day 27): none of the animals has died
